Drawing on PMC7915588, “Polyphyllin D Shows Anticancer Effect through a Selective Inhibition of Src Homology Region 2-Containing Protein Tyrosine Phosphatase-2 (SHP2)” (Molecules, 2021), this text covers inhibition for 1 compound.

The target in one assay is T1, PTPN21 (PTPD1) (Homo sapiens, UniProt Q16825).
T1 construct: 839-1174
T1 sequence (Q16825 1-1174): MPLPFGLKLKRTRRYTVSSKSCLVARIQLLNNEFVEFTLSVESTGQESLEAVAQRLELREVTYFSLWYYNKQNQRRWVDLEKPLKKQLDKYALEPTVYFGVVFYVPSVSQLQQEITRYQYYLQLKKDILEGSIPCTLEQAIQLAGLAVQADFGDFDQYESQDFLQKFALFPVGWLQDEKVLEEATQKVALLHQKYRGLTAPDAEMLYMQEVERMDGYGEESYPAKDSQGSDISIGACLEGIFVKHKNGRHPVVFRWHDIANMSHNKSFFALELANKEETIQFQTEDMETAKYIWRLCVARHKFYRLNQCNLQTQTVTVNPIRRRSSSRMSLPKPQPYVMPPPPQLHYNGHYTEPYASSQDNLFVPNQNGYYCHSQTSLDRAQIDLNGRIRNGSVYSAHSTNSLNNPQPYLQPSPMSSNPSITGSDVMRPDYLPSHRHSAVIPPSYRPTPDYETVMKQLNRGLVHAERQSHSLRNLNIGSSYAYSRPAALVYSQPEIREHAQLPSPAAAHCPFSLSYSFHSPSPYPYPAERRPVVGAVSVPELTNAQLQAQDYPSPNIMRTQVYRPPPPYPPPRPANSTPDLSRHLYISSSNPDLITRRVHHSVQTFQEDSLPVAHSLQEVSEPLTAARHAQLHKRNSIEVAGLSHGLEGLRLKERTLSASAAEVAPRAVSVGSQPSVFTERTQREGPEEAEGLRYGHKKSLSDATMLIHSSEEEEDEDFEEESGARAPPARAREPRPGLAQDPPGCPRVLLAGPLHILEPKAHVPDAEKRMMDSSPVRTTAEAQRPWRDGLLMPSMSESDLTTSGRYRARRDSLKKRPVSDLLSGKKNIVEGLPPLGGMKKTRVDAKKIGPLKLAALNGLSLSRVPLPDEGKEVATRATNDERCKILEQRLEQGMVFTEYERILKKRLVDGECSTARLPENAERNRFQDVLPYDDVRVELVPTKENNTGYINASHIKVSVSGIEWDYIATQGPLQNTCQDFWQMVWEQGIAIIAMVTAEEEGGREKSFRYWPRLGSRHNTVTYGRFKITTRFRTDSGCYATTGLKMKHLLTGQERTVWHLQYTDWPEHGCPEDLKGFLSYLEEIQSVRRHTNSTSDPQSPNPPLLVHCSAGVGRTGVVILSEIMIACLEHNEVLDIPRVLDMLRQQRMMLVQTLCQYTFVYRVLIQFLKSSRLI
In words: biochemical. The settings on record: read-out: Inhibition by 20 µM polyphyllin D (%). Set-up: Fluorogenic phosphatase assay, DiFMUP hydrolysis by recombinant PTPs, initial velocity, Ex/Em 355/460 nm. On the procedure: (§1) Enzymatic reactions were initiated by the addition of SHP2 (final concentration of 10 nM) to a solution of each of the 658 phytochemical compounds (final concentration of 20 µM) in reaction buffer (20 mM bis-tris pH 6.0, 150 mM NaCl, 2.5 mM dithiothreitol, and 0.01% Triton X-100) containing DiFMUP (final concentration of 140 µM). Changes in the fluorescence intensities were measured continuously for 10 min at Ex/Em = 355/460 nm on a VictorTM X4 multilabel plate reader. Enzyme inhibition was estimated by comparing the reaction velocity in the presence of each compound with that in the absence of any compound. Inhibition of the other PTPs was measured in the same way. Next, we established a screening strategy using a DiFMUP substrate to identify a natural product that inhibits SHP2 activity. Initially, we screened 658 compounds at 20 µM using a 96-well plate system (Figure 2A). […] The selected compounds were tested at 20 µM for SHP2 inhibition, and 14 additional non-receptor-type PTPs (PTP1B, TCPTP, PTPH1, STEP, SHP1, HePTP, PTP-MEG2, PTP-PEST, PTP-BAS, PTP36, PTP-HSCF, PTPD1, LYP, and HD-PTP) were used to investigate the inhibition selectivity. The results were visualized using a heat map analysis by GraphPad Prism (Figure 2B and Table S2 in Supplementary Materials). To identify new SHP2 anticancer natural products, we first performed cloning to express SHP2 protein and then purified it. PTPN11 (Gene ID: 5781) encoding human SHP2 (amino acids sequences 1 to 526) with several extra amino acids were cloned into the MBP-pET 28a (+) vector, which was successfully used to overexpress PTPs with enhanced solubility in an Escherichia coli expression system. Information on amino acids for 15 non-receptor-type PTPs including SHP2 is summarized in Table S3 in the Supplementary Materials. SHP2 was overexpressed in RosettaTM (DE3) and purified using a metal affinity resin (Figure S1 in Supplementary Materials). […] The kcat, KM, and kcat/KM values were determined to be 270 min^−1, 70 μM, and 3.9 μM^−1min^−1, respectively, using the Lineweaver–Burk plot analysis (Table S1 in Supplementary Materials).

For a further assay, the target named is T2, SHP1 (Homo sapiens, UniProt P29350).
T2 construct: gene PTPN6
Kind of assay: biochemical. Set-up: Fluorogenic phosphatase assay, DiFMUP hydrolysis by recombinant PTPs, initial velocity, Ex/Em 355/460 nm. To be noted: read-out: Inhibition by 20 µM polyphyllin D (%). On the procedure:
as §1

T2 sequence (P29350 whole entry): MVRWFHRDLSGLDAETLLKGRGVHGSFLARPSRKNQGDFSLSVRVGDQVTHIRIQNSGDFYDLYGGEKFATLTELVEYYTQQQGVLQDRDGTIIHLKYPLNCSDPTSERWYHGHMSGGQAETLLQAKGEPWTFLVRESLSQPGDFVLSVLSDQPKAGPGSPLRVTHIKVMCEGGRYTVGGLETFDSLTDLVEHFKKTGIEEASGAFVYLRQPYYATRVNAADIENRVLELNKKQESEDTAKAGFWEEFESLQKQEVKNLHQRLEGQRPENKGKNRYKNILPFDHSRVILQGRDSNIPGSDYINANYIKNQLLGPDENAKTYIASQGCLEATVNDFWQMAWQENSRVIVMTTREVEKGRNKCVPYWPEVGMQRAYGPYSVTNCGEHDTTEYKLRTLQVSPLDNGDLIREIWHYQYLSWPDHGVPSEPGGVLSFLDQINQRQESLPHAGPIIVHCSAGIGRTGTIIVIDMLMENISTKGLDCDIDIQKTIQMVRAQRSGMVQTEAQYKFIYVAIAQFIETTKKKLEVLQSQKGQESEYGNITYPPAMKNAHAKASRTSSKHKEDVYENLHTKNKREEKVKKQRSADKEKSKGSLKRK

The term inhibition denotes the drop in the measured response relative to a control, in per cent. Turning to `C[C@@H]1CC[C@@]2(OC1)O[C@H]1C[C@H]3[C@@H]4CC=C5C[C@@H](O[C@@H]6O[C@H](CO)[C@@H](O[C@@H]7O[C@@H](CO)[C@H](O)[C@H]7O)[C@H](O)[C@H]6O[C@@H]6O[C@@H](C)[C@H](O)[C@@H](O)[C@H]6O)CC[C@]5(C)[C@H]4CC[C@]3(C)[C@H]1[C@@H]2C` [polyphyllin D], the values for the inhibition at 20 µM on PTPN21 (PTPD1) and at SHP1 were 20.5% and 0.1%, respectively.
